Laboratory results from ChEMBL document CHEMBL1139402, “Design and SAR of new substituted purines bearing aryl groups at N9 position as HIV-1 Tat-TAR interaction inhibitors” (Bioorg Med Chem, 2008).

Experiments:
[1] = Cytotoxicity against human CEM cells assessed as inhibition of uninfected cells proliferation; type: cell-based; conditions: CEM (CCRF-CEM) cells, read-out: TC50 (the source's name)
[2] = Selectivity index, ratio of TC50 for human CEM cells to EC50 for SIV-induced syncytium; parameters: species or system CCRF-CEM
[3] = system: Simian immunodeficiency virus; assay: Antiviral activity against SIV-induced syncytium in human CEM cells assessed as inhibition of virus-induced cytopathogenicity after 5 days; type: functional, organism-based; conditions: CCRF-CEM, 120 h
[4] = system: Human immunodeficiency virus 1; assay: Inhibition of HIV1 Tat-TAR interaction-mediated transactivation in human 293T cells assessed as CAT gene expression at 30 uM after 24 hrs by ELISA; type: functional; conditions: Human immunodeficiency virus 1, HEK-293T

Compound	EC50 [3]	CC50 [1]	Ratio [2]	inhibition at 30 µM [4]
CCN(CC)c1nc(C)c2nc(SCC(=O)NCCNC(=N)N)n(CCn3cncn3)c2n1	12.4 µM	> 100 µM	>8.1	–
CCN(CC)c1nc(C)c2nc(SCC(=O)NCCCNC(=N)N)n(CCn3cncn3)c2n1	7.1 µM	> 100 µM	>14.1	–
CCN(CC)c1nc(C)c2nc(SCC(=O)NCCCNC(=N)N)n(CCNc3ncnc4[nH]cnc34)c2n1	13 µM	> 100 µM	>7.7	58.6%
CCN(CC)c1nc(C)c2nc(SCC(=O)NCCNC(=N)N)n(CCCN3CCOCC3)c2n1	18.9 µM	> 100 µM	>5.3	81.8%
CCN(CC)c1nc(C)c2nc(SCC(=O)NCCCNC(=N)N)n(CCCN3CCOCC3)c2n1	11.2 µM	> 100 µM	>8.9	48.2%
CCN(CC)c1nc(C)c2nc(SCC(=O)NCCNC(=N)N)n(CCc3c[nH]c4ccccc34)c2n1	7.9 µM	29.5 µM	3.7	–
CCN(CC)c1nc(C)c2nc(SCC(=O)NCCN)n(CCNc3nc(N)nc4[nH]cnc34)c2n1	20 µM	> 100 µM	>5	–
CCN(CC)c1nc(C)c2nc(SCC(=O)NCCNC(=N)N)n(CCNc3ncnc4[nH]cnc34)c2n1	7.8 µM	92.7 µM	11.9	48.2%
CCN(CC)c1nc(C)c2nc(SCC(=O)NCCCNC(=N)N)n(CCNc3nc(N)nc4[nH]cnc34)c2n1	8.3 µM	> 100 µM	>12	–
CCN(CC)c1nc(C)c2nc(SCC(=O)NCCN)n(CCn3cncn3)c2n1	13.8 µM	> 100 µM	>7.2	–
CCN(CC)c1nc(C)c2nc(SCC(=O)NCCCN)n(CCn3cncn3)c2n1	11.5 µM	> 100 µM	>8.7	–
CCN(CC)c1nc(C)c2nc(SCC(=O)NCCN)n(CCCn3cncn3)c2n1	6.9 µM	> 100 µM	>14.5	48.2%
CCN(CC)c1nc(C)c2nc(SCC(=O)NCCN)n(CCCN3CCOCC3)c2n1	12.4 µM	64.8 µM	5.2	80.4%
CCN(CC)c1nc(C)c2nc(SCC(=O)NCCCN)n(CCCn3cncn3)c2n1	8.9 µM	31.7 µM	3.6	–
CCN(CC)c1nc(C)c2nc(SCC(=O)NCCCN)n(CCCN3CCOCC3)c2n1	11.8 µM	87.5 µM	7.4	83%

The next compounds have a lower EC50 [3] than those just listed; values first:

EC50 [3]	Compound	CC50 [1]	Ratio [2]	inhibition at 30 µM [4]
5.4 µM	CCN(CC)c1nc(C)c2nc(SCC(=O)NCCNC(=N)N)n(CCCn3cncn3)c2n1	> 100 µM	>18.5	48.2%
5.8 µM	CCN(CC)c1nc(C)c2nc(SCC(=O)NCCCNC(=N)N)n(CCCn3cncn3)c2n1	> 100 µM	>17.2	–
6.1 µM	CCN(CC)c1nc(C)c2nc(SCC(=O)NCCNC(=N)N)n(CCNc3nc(N)nc4[nH]cnc34)c2n1	> 100 µM	>16.4	–
5.6 µM	CCN(CC)c1nc(C)c2nc(SCC(=O)NCCCNC(=N)N)n(CCc3c[nH]c4ccccc34)c2n1	29.1 µM	5.2	–
1.6 µM	CCN(CC)c1nc(C)c2nc(SCC(=O)NCCN)n(CCc3c[nH]c4ccccc34)c2n1	6.5 µM	4.1	–
4.2 µM	CCN(CC)c1nc(C)c2nc(SCC(=O)NCCCN)n(CCc3c[nH]c4ccccc34)c2n1	10.2 µM	2.4	–
5.5 µM	CCN(CC)c1nc(C)c2nc(SCC(=O)NCCCN)n(CCNc3ncnc4[nH]cnc34)c2n1	> 100 µM	>18.2	52.3%
6.5 µM	CCN(CC)c1nc(C)c2nc(SCC(=O)NCCCN)n(CCNc3nc(N)nc4[nH]cnc34)c2n1	> 100 µM	>15.4	–
2.5 µM	CCN(CC)c1nc(C)c2nc(SCC(=O)NCCN)n(CCNc3ncnc4[nH]cnc34)c2n1	> 100 µM	>40	48.2%
